# Assay results as given in patent US7202024B2, “bbc3 Gene promoter and methods for identifying modulators of apoptosis and bbc3 gene expression using a bbc3 gene promoter” (Immunogen Inc., priority 2001, dated 2007).
# Peptide text beside a SMILES is read from it. * marks the point of attachment. Cbz = O=C(OCc1ccccc1)*; CH2F = FC*
# Key:
# Bbc3 protein [1] = test: Western blot of Bbc3 protein in HT29 cells; assay type: cell-based, human; conditions: for ability of serum to suppress Bbc3 protein levels: HT29 cells in serum, 50 μM LY294002, 10 μM PD98059, 30 μM AG1478 or 50 μM AG1024; for ability of serum to suppress Bbc3 protein levels / Bbc3 protein expression: 24 hrs; for Bbc3 protein expression: 100 ng/ml IGF-1, 50 ng/ml EGF or 25 ng/ml PDGF
# Experimental: (§1) HT29 cells were incubated for one day in the absence of serum (−), and then incubated in media containing either serum, 100 ng/ml IGF-1, 50 ng/ml EGF, or 25 ng/ml PDGF, for 24 hrs. Bbc3 was detected by western blot analysis, followed by sequential probing of the blot with anti-Bax and anti-Bcl-xL antibodies.
# HT29 cells were cultured as in FIG. 6B and then incubated for 24 hrs in media containing either serum, 100 ng/ml IGF-1, or 100 ng/ml IGF-1 in the presence of 50 μM LY294002 (added 1 hr prior to IGF-1). Bbc3 was detected by western blot analysis.
# HT29 cells were grown in the presence of serum (lane 1), and then incubated for 24 hrs in the absence of serum, or in the presence of serum supplemented with 50 μMLY294002.
# HT29 cells were incubated for one day in the absence of serum (−), and then incubated in media containing either serum, 50 ng/ml EGF, or 50 ng/ml EGF+30 nM AG1478, for 24 hrs. Bbc3 was detected by western blot analysis.
# HT29 cells were cultured in the presence of serum for one day (+) and then incubated for 24 hrs with serum or without serum, or in the presence of serum supplemented with either 10 μM PD98059, 30 μM AG1478, or 50 μM AG1024. Bbc3 was detected by western blot analysis, followed by reprobing of the blot with anti-Bax.
# (§2) A mouse monoclonal antibody, KM140, was made against a recombinant GST-Bbc3 fusion protein. The KM140 epitope was mapped to residues 73–76 by probing a blot with arrayed overlapping Bbc3 peptides (Research Genetics). Cells were plated at 3–10×10^6 cells per 100 mm dish in either serum containing (10% FBS), or serum free media (0% FBS, 0.1% BSA). Cell lysates were prepared, electrophoresed (100 to 200 μg per lane) on 4–20% polyacrylamide reducing gels, and analyzed by western blotting as described previously (Chittenden, T., et al., EMBO J. 14:5589–96 (1995)).
# bbc3 mRNA [2] = test: Northern blot of bbc3 mRNA in E1a/Ras/p53MER mouse fibroblast cell line; assay type: cell-based; conditions: p53-estrogen receptor fusion cells, 4-OHT 100 nM, 5 hours
# From the text: (§3) Northern blots were hybridized with a murine bbc3 cDNA probe, followed by re-hybridization with an actin probe.
# Cell death induced by etoposide and other DNA-damaging drugs in murine fibroblasts is mediated, at least in part, by the p53 tumor suppressor (Levine, A. J., Cell 88:323–31 (1997); Vousden, K. H., Cell 103:691–4 (2000)).
# (§4) All cell lines used were obtained from ATCC, unless otherwise noted. HeLa/Bcl-XL cells were generated by stable transfection of HeLa cells with a vector encoding a Flag-epitope tagged BCl-xL. Murine myeloid leukemia M1 cells containing a temperature sensitive p53-val135 mutant (M1p53ts), and E1A/ras transformed p53^−/−mouse embryonic fibroblasts containing a p53-estrogen receptor fusion, have been described previously (Vater, C. A., et al., Oncogene 13:739–48 (1996); Yonish-Rouach, E., et al., Nature 352:345–7 (1991)).
# (§5) Total RNA was isolated from mouse thymocytes (RNeasy system, Qiagen). Poly(A)+RNA (FastTract system, Invitrogen) was prepared in all other experiments. 10 μg of total RNA or 3 μg of poly(A)+RNA per lane was denatured and separated by electrophoresis in 1% formaldehyde agarose gels. Northern blotting was performed following standard methods.
# GST-Bcl-xL = GST-Bcl-xL (Homo sapiens, UniProt Q07817); test: Bcl-xL competition binding assay (ELISA, immobilized Bak BH3 peptide); conditions: competition with immobilized Bak BH3 peptide
# Experimental: Binding of GST-Bcl-xL to an immobilized Bak BH3 peptide was measured by ELISA (triplicate samples, +S.D.), in the presence of the indicated concentrations of a competing synthetic Bbc3 BH3 or Bak BH3 peptide.
# Cell lysates were prepared and co-immunoprecipitation assays were performed as described previously (Chittenden, T., et al., EMBO J. 14:5589–96 (1995)). The Bcl-xL competition binding assay was performed as previously described (Zhou, X. M., et al., J. Biol. Chem. 275:25046–51 (2000)), using synthetic BH3 peptides comprising residues 133–152 of Bbc3, and residues 70–89 of Bak.
# PARP = test: Western blot of PARP cleavage in serum-starved Jurkat cells; assay type: cell-based, human; conditions: without serum 24 hrs, z-VAD 100 μM
# From the text: (§6) Bbc3 and PARP were detected by western blot analysis.
# (§7) Deprivation of serum is a strong pro-apoptotic stimulus for many cultured tumor cell lines, triggering cell death or sensitizing cells to other apoptotic stimuli. Thus, the effect of serum deprivation on bbc3 mRNA expression and Bbc3 protein levels was also examined, using a monoclonal antibody generated against recombinant human Bbc3. A striking increase in Bbc3 protein levels was observed upon serum deprivation in multiple human tumor cell lines (FIG. 5B), including cell lines that lack functional p53. […] Therefore, the induction of Bbc3 precedes caspase activation, and is not simply a response to the engagement of the cell death program.
# as §2
# Bbc3 protein [3] = test: Western blot of Bbc3 in serum-starved Jurkat cells; assay type: cell-based, human; conditions: without serum 24 hrs, z-VAD 100 μM
# From the text: as §6, §7, §2
# bbc3 mRNA [4] = test: Northern blot of bbc3 mRNA in NIH3T3 cells; assay type: cell-based, murine; conditions: etoposide 50 μM, 6 hours
# Experimental: as §3
# To evaluate whether the activity of bbc3 might be under transcriptional control, the expression of bbc3 was examined in response to apoptotic stimuli likely to involve new mRNA/protein synthesis.
# as §5
# bbc3 gene promoter = bbc3 gene promoter luciferase reporter assay (pGL3/0.9) in HeLa/Bcl-xL cells; assay type: cell-based, human; conditions: pGL3/0.9, no serum, 100 ng/ml IGF-1, 24 hrs
# Experimental: The pGL3/0.9 bbc3 gene promoter luciferase reporter plasmid was transfected into HeLa-Bcl-xL cells. At 24 hrs after transfection, cells were incubated for an additional 24 hrs in the presence of 20% serum (+) with or without 50 μM LY294002, or in the absence of serum (−) with or without 100 ng/ml IGF-1. Luciferase activity was measured and normalized for transfection efficiency (β-galactosidase).
# Additional experiments were performed to determine whether the bbc3 gene promoter was regulated by signal transduction pathways known to play a role in cell survival. A bbc3 gene promoter-luciferase reporter construct containing 0.9 kb of the bbc3 gene promoter region, was transfected into HeLa/Bcl-xL cells and the activity of the promoter measured by luciferase assays 48 hours after transfection. […] Thus, a PI-3 kinase dependent pathway controls, at least in part, the activity of the bbc3 gene promoter. […]
# Luciferase assays were performed using the Dual-Light System (Tropix) for the combined detection of luciferase and β-galactosidase. […] Luciferase and β-galactosidase activities were measured 24 hours following transfection. […] Cell culture medium was changed to either DMEM containing 20% serum, or DMEM without serum, 24 hours following transfection and luciferase/β-galactosidase levels were measured after an additional 24 hours of incubation. […]
# Bcl-xL = test: Western blot of Bcl-xL in HT29 cells; assay type: cell-based, human; conditions: serum-starved HT29 cells, 24 hrs; 100 ng/ml IGF-1 or 50 ng/ml EGF
# Experimental: as §1, §2
# Bax = test: Western blot of Bax in HT29 cells; assay type: cell-based, human; conditions: serum-starved HT29 cells, 24 hrs; 100 ng/ml IGF-1 or 50 ng/ml EGF
# Experimental: as §1, §2
# bbc3 mRNA [5] = test: Northern blot of bbc3 mRNA in M1p53ts cells after temperature shift; assay type: cell-based, murine; conditions: M1p53ts cells shifted to 32° C. for 6 hours in the presence of IL-6
# From the text: as §3
# (Yonish-Rouach, E., et al., Nature 352:345–7 (1991)). […] (FIG. 3C). […] (FIG. 3C).
# as §4, §5
# Chain of GST-Bcl-xL (Q07817 whole entry): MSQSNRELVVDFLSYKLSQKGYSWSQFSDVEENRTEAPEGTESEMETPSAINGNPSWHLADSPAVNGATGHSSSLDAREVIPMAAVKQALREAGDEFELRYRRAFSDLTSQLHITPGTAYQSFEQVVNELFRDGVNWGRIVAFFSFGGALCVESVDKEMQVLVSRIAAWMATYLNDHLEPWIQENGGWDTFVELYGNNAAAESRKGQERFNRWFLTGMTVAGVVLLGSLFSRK
compound,measurement,setting,value
CC(C)(C)c1cc(C=C(C#N)C#N)cc(Br)c1O [tyrphostin AG1024],ability of serum to suppress Bbc3 protein levels,Bbc3 protein [1],impaired the ability of serum to suppress Bbc3 protein expression
COc1cccc(-c2cc(=O)c3ccccc3o2)c1N [PD98059],ability of serum to suppress Bbc3 protein levels,Bbc3 protein [1],impaired the ability of serum to suppress Bbc3 protein expression
4-hydroxytamoxifen [4-OHT],bbc3 mRNA levels,bbc3 mRNA [2],sufficient to induce bbc3 mRNA levels
Bbc3 BH3 peptide: 20 amino acid synthetic peptide encompassing the Bbc3 BH3 domain (residues 133 to 152) (WAREIGAQLRRMADDLNAQY),binding affinity to recombinant GST-Bcl-xL in vitro,GST-Bcl-xL,affinity comparable to a previously characterized Bak BH3 peptide
CC(NC(=O)C(NC(=O)OCc1ccccc1)C(C)C)C(=O)NC(CC(=O)O)C(=O)CF (stereo not drawn) [z-VAD] (Cbz-Val-Ala-Asp-CH2F; configuration not given here),cleavage of the caspase substrate PARP,PARP,"prevented cleavage of the caspase substrate, PARP"
same,induction of Bbc3 protein levels by serum deprivation,Bbc3 protein [3],no impact on the induction of Bbc3 protein levels
COc1cc([C@@H]2c3cc4c(cc3[C@@H](O[C@@H]3O[C@@H]5CO[C@@H](C)O[C@H]5[C@H](O)[C@H]3O)[C@H]3COC(=O)[C@H]23)OCO4)cc(OC)c1O [etoposide],bbc3 mRNA levels,bbc3 mRNA [4],rapid induction of bbc3 mRNA levels
COc1cc2ncnc(Nc3cccc(Cl)c3)c2cc1OC [AG1478],ability of serum to suppress Bbc3 protein levels,Bbc3 protein [1],blocked the ability of EGF and serum to suppress Bbc3 protein expression
same,ability of EGF to suppress Bbc3 protein expression,"Bbc3 protein [1]; serum-starved HT29 cells, 50 ng/ml EGF + 30 nM AG1478, 24 hrs",blocked the ability of EGF and serum to suppress Bbc3 protein expression
PDGF,Bbc3 protein expression,Bbc3 protein [1]; serum-starved HT29 cells,failed to suppress Bbc3 levels
IGF-1: growth factor with broad anti-apoptotic activity,induction of bbc3 gene promoter activity (luciferase) in the absence of serum,bbc3 gene promoter,substantially reduced
same,Bcl-xL protein level,Bcl-xL,no effect
same,Bbc3 protein expression,Bbc3 protein [1]; serum-starved HT29 cells,strongly inhibited Bbc3 protein expression
same,Bax protein level,Bax,no effect
"EGF: growth factor with broad anti-apoptotic activity (NSDSECPLSHDGYCLHDGVCMYIEALDKYACNCVVGYIGERCQYRDLKWWELR; UniProt P01133 971-1023, looked up)",Bcl-xL protein level,Bcl-xL,no effect
same,Bbc3 protein expression,Bbc3 protein [1]; serum-starved HT29 cells,strongly inhibited Bbc3 protein expression
same,Bax protein level,Bax,no effect
"IL-6: IL-6, which suppresses apoptosis induced by p53 in M1 cells",induction of bbc3 mRNA by wild-type p53,bbc3 mRNA [5],did not prevent induction of bbc3 mRNA
